Values of other authors, collected in PMC3693451 (Bioorganic & medicinal chemistry letters, 2011).

Assays:
CB receptors [1] = details: read-out: Ki at both CB receptors
CB receptors [2] = tested on: CB receptors
human CB1 = details: read-out: human CB1 Ki
[3] = tested on: chronic neuropathic and inflammatory pain; details: rat
[4] = tested on: rat CB1, human CB1 and human CB2 receptors
[5] = 214 targets

| Structure (SMILES) | Ki (CB receptors [1]) [nM] | neuroprotective properties | agonist type at both CB receptors (CB receptors [2]) | Ki (human CB1) [nM] | effect in chronic neuropathic and inflammatory pain models [3] | agonist properties in [35S]GTPγS binding assays [4] | selectivity for CB receptors in target screen [5] |
| --- | --- | --- | --- | --- | --- | --- | --- |
| O=S(=O)(CCCC(F)(F)F)Oc1cccc(Oc2cccc3c2C[C@H](CO)C3)c1 [BAY 38–7271, (−)-(R)-3-(2-hydroxymethylindanyl-4-oxy)phenyl-4,4,4-trifluoro-1-sulfonate] | 0.46 to 1.85 | pronounced neuroprotective properties | full agonist |  |  |  |  |
| N#Cc1c(Oc2cccc(OS(=O)(=O)CCCC(F)(F)F)c2)cccc1C(F)(F)F [BAY 59–3074] |  |  |  | 48.3 | pronounced antihyperalgesic and antiallodynic properties | partial agonist | no significant interactions with other targets |
